Assay results from patent publication US20120264603A1, “ATTACHMENT AND RETENTION FORMULATIONS FOR BIOLOGICALLY ACTIVE ORGANIC COMPOUNDS” (priority 2010, published 2012).

Test: Water solubility of sulfentrazone as a function of pH
Type: physicochemical

Cc1nn(-c2cc(NS(C)(=O)=O)c(Cl)cc2Cl)c(=O)n1C(F)F [sulfentrazone]
solubility in water (at 7.5 pH): soluble in water
solubility in water (pH ~5): sparingly soluble in water
